From patent US20230121721A1, “MONOACYLGLYCEROL LIPASE INHIBITORS” (STICHTING HET NEDERLANDS KANKER INSTITUUT - ANTONI VAN …, priority 2020, published 2023)

What follows are compounds tested against T1, hMAGL (MAGL-overexpressing membrane preparations from transiently transfected HEK293T cells) (Homo sapiens, UniProt Q99685) (assay: MAGL activity assay (2-AG hydrolysis, glycerol coupled to Amplifu Red fluorescence)). Details: hMAGL-overexpressing HEK293T membranes, 25 μM 2-AG substrate, 20 min. inhibitor incubation.
T1 construct: expressed in transfected cells; host or cells: HEK293T (transient transfection), membrane preparations
T1 sequence (Q99685 1-303): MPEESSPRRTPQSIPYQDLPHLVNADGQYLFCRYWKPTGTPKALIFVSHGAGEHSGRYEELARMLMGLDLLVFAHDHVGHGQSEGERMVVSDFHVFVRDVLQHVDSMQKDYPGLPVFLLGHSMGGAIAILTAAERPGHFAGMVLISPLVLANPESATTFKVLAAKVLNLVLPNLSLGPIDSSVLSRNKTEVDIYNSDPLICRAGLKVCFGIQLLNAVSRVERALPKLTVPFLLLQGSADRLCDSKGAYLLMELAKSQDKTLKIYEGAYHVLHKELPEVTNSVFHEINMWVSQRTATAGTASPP
Type: biochemical

Q: For `C[C@H]1[C@H](C)N(c2cccc(Cl)c2)CCN1C(=O)c1ccc([S+]([O-])CC(=O)c2ccc(C#N)cn2)c(Cl)c1` (mixture of isomers) [Example 105, (±) 6-(2-((2-Chloro-4-(4-(3-chlorophenyl)-trans-2,3-dimethylpiperazine-1-carbonyl)phenyl)sulfinyl)acetyl)nicotinonitrile], which IC50 is on record?
A: 10 nM

Q: Which IC50 does the source give for `C[C@H]1[C@H](C)N(c2cccc(Cl)c2)CCN1C(=O)c1ccc([S+]([O-])CC(=O)c2cnccn2)c(Cl)c1` (mixture of isomers) [Example 101, (±) 2-((2-Chloro-4-(4-(3-chlorophenyl)-trans-2,3-dimethylpiperazine-1-carbonyl)phenyl)sulfinyl)-1-(pyrazin-2-yl)ethan-1-one] here?
A: 1100 nM

Q: Which IC50 does the source give for `C[C@H]1[C@H](C)N(c2cc(Cl)ccn2)CCN1C(=O)c1ccc([S+]([O-])CC(=O)C(C)(F)F)c(Cl)c1` (mixture of isomers) [Example 83, (±) 1-((2-Chloro-4-(4-(4-chloropyridin-2-yl)-trans-2,3-dimethylpiperazine-1-carbonyl)phenyl)sulfinyl)-3,3-difluorobutan-2-one] here?
A: 3.39 nM

Q: Which IC50 does the source give for `CCOC(=O)C[S+]([O-])c1ccc(C(=O)N2CCN(c3cccc(Cl)n3)[C@@H](C)[C@@H]2C)cc1Cl` (mixture of isomers) [Example 70, (±) Ethyl 2-((2-chloro-4-(-4-(6-chloropyridin-2-yl)-trans-2,3-dimethylpiperazine-1-carbonyl)phenyl)sulfinyl)acetate] here?
A: 9.12 nM

Q: How did the IC50 turn out when `C[C@H]1[C@H](C)N(c2cccc(Cl)c2)CCN1C(=O)c1ccc([S+]([O-])CC(=O)c2cccc(F)c2F)c(Cl)c1` (mixture of isomers) [Example 93, (±) 2-((2-Chloro-4-(4-(3-chlorophenyl)-trans-2,3-dimethylpiperazine-1-carbonyl)phenyl)sulfinyl)-1-(2,3-difluorophenyl)ethan-1-one] was run?
A: 575 nM

Q: With `C[C@H]1[C@H](C)N(c2cccc(Cl)c2)CCN1C(=O)c1ccc([S+]([O-])CC(=O)c2ccncn2)c(Cl)c1` (mixture of isomers) [Example 100, (±) 2-((2-Chloro-4-(4-(3-chlorophenyl)-trans-2,3-dimethylpiperazine-1-carbonyl)phenyl)sulfinyl)-1-(pyrimidin-4-yl)ethan-1-one] as the compound, how does the IC50 read?
A: 87.1 nM

Q: `C[C@H]1[C@H](C)N(c2cccc(Cl)c2)CCN1C(=O)c1ccc([S+]([O-])CC(=O)c2ccc(C#N)cc2)c(Cl)c1` (mixture of isomers) [Example 99, (±) 4-(2-((2-Chloro-4-(4-(3-chlorophenyl)-trans-2,3-dimethyl-piperazine-1-carbonyl)phenyl)sulfinyl)acetyl)benzonitrile] was tested. Which IC50 did it give?
A: 91.2 nM
